Article PMC4026528 (PLoS ONE, 2014)
Values joined by “and” are separate entries in the source; they are usually repeats but may differ in a detail not shown here. Identical values can stand only once.

How the values were obtained:
[1] = Body weight and intestinal histology of treated mice; format: in vivo, female Crl:CD-1 nude mice; settings: 30 mg/kg twice a day for seven days
Procedure: Female athymic nude mice (6 weeks old, Crl:CD-1 nude mice) were obtained from Charles River Italia (Calco, Italy). HT-1080 cells (6×10^∧6 cells) were resuspended in 200 µl of PBS 1X and injected subcutaneously in the right flank of the mice. Body weight and tumor measurements (using a digital caliper) were performed twice a week. Randomization was performed on day 12 after cell injection by comparing tumor mass and treatments started on day 13 when tumors reached a median size of 246 mm^3 (range = 230–268 mm^3). SEN461 was formulated in 0.5% w/v Methocel in MilliQ water and administered PO by oral gavage twice a day at 30 mg/kg for seven consecutive days in a total of 15 animals (n = 5 for each time point). Control animals (n = 5) were administered with the vehicle for the same time period. On treatment day 19, the mice were euthanized under inhalant anesthesia with isoflurane and tumor and blood samples were collected at three different time points (1–4–8 h, n = 5 animals for each time point) after last treatment and subjected to gene expression analysis and compound quantification. All mice were maintained in a conventional-specific-pathogen-free facility according to the NIH guidelines using an approved Animal Care and Use Committee protocol. […]

[2] = tested on: human mRNA in HT-1080 xenograft tumors; assay: Gene expression (qPCR) in HT-1080 xenograft tumors; format: in vivo, female Crl:CD-1 nude mice
Procedure: RNA extraction and quantitative RT-PCR (qPCR) expression analysis was performed as described previously. Gene expression analysis was performed using the human housekeeping gene RPL13A. Primers for the hAXIN2, hCDC25A, hc-MYC, hFZD4, hDVL2, hCSNK1G and hVEGF-A were the following: [NT] Rv: [NT] Rv: [NT] Rv: [NT] Rv: [NT] Rv: [NT] Rv: [NT] Rv: [NT]. Female athymic nude mice (6 weeks old, Crl:CD-1 nude mice) were obtained from Charles River Italia (Calco, Italy). HT-1080 cells (6×10^∧6 cells) were resuspended in 200 μl of PBS 1X and injected subcutaneously in the right flank of the mice. Body weight and tumor measurements (using a digital caliper) were performed twice a week. […] SEN461 was formulated in 0.5% w/v Methocel in MilliQ water and administered PO by oral gavage twice a day at 30 mg/kg for seven consecutive days in a total of 15 animals (n = 5 for each time point). Control animals (n = 5) were administered with the vehicle for the same time period. On treatment day 19, the mice were euthanized under inhalant anesthesia with isoflurane and tumor and blood samples were collected at three different time points (1-4-8 h, n = 5 animals for each time point) after last treatment and subjected to gene expression analysis and compound quantification. All mice were maintained in a conventional-specific-pathogen-free facility according to the NIH guidelines using an approved Animal Care and Use Committee protocol. During all the experimental time period, mice were housed (5 animals/cage) in individually ventilated solid floor plastic cages (Sealsafe Plus GR500, Tecniplast-Gazzada (VA) - Italy) using as bedding the Sawdust SCOBIS UNO by […] (via Galileo […] Milanese, Milano, Italy). Cages were maintained at a temperature of 20-24°C and humidity of 40-70% (Siemens Desigo Apparatus ver. 4.1) with 70 air changes/hour in the cage (10-15 air changes/hour in the room). Animals were subjected to a 12-hour light/12-hour dark cycle and have free access to a standard pelleted commercial laboratory diet (Certified Rodent irradiated 4RF21- Mucedola, Italy) and to municipal tap water, purified by reverse osmosis and autoclaved. The study was conducted in compliance with Decreto Legislativo January 27, 1992, N. 116, Gazzetta Ufficiale N. 40 February 18, 1992, (Directive N. […]) concerning protection of animals used for scientific purposes. The project was authorized by the Italian Institute of Health (48/2009/B). The experimental protocol was […] approved by the Internal Ethical Committee.

[3] = tested on: Axin1 and β-catenin in 143B osteosarcoma cells; assay: Western blotting in 143B; format: cell-based, human
[4] = tested on: Wnt target gene mRNA in HT-1080 cells; assay: Quantitative RT-PCR of Wnt target genes in HT-1080; format: cell-based, human; settings: HT-1080, overnight, 10 µmol/L
Procedure: RNA extraction and quantitative RT-PCR (qPCR) expression analysis was performed as described previously. Gene expression analysis was performed using the human housekeeping gene RPL13A. Primers for the hAXIN2, hCDC25A, hc-MYC, hFZD4, hDVL2, hCSNK1G and hVEGF-A were the following: Fw: 5′-CAAGGGCCAGGTCACCAA-3′ Rv: 5′-CCCCCAACCCATCTTCGT-3′; Fw: 5′-[…]-3′ Rv: 5′-[…]-3′; Fw: 5′-GGCTCCTGGCAAAAGGTCA-3′ Rv: 5′-[…]-3′; Fw: 5′-[…]-3′ Rv: 5′-[…]-3′; Fw: 5′-[…]-3′ Rv: 5′-GTCTCCCCGCTCATTGCTC-3′; Fw: 5′-[…]-3′ Rv: 5′-[…]-3′; Fw: 5′-[…]-3′ Rv: 5′-[…]-3′.

[5] = Plasma and tumor exposure in HT-1080 xenograft mice; format: in vivo, female Crl:CD-1 nude mice; settings: 30 mg/kg BID PO
Procedure: Female athymic nude mice (6 weeks old, Crl:CD-1 nude mice) were obtained from Charles River Italia (Calco, Italy). HT-1080 cells (6×10^∧6 cells) were resuspended in 200 µl of PBS 1X and injected subcutaneously in the right flank of the mice. Body weight and tumor measurements (using a digital caliper) were performed twice a week. Randomization was performed on day 12 after cell injection by comparing tumor mass and treatments started on day 13 when tumors reached a median size of 246 mm^3 (range = 230–268 mm^3). SEN461 was formulated in 0.5% w/v Methocel in MilliQ water and administered PO by oral gavage twice a day at 30 mg/kg for seven consecutive days in a total of 15 animals (n = 5 for each time point). Control animals (n = 5) were administered with the vehicle for the same time period. On treatment day 19, the mice were euthanized under inhalant anesthesia with isoflurane and tumor and blood samples were collected at three different time points (1–4–8 h, n = 5 animals for each time point) after last treatment and subjected to gene expression analysis and compound quantification. All mice were maintained in a conventional-specific-pathogen-free facility according to the NIH guidelines using an approved Animal Care and Use Committee protocol. During all the experimental time period, mice were housed (5 animals/cage) in individually ventilated solid floor plastic cages (Sealsafe Plus GR500, Tecniplast-Gazzada (VA) – Italy) using as bedding the Sawdust SCOBIS UNO by MUCEDOLA S.r.l (via Galileo Galilei 4, 20019 Settimo Milanese, Milano, Italy). Cages were maintained at a temperature of 20–24°C and humidity of 40–70% (Siemens Desigo Apparatus ver. 4.1) with 70 air changes/hour in the cage (10–15 air changes/hour in the room). Animals were subjected to a 12-hour light/12-hour dark cycle and have free access to a standard pelleted commercial laboratory diet (Certified Rodent irradiated 4RF21– Mucedola, Italy) and to municipal tap water, purified by reverse osmosis and autoclaved. The study was conducted in compliance with Decreto Legislativo January 27, 1992, N. 116, Gazzetta Ufficiale N. 40 February 18, 1992, (Directive N. […]) concerning protection of animals used for scientific purposes. The project was authorized by the Italian Institute of Health (48/2009/B). The experimental protocol was rewieved and approved by the Internal Ethical Committee.

[6] = 30 mg/kg BID PO 7 days, data not shown

## COCC(=O)N1CCN(C(=O)C2CCC(Cn3c(=O)c4cc(OC)ccc4n(C)c3=O)CC2)CC1 (stereo not drawn) [SEN461]
[1]
  body weight: maintained their body weight with no significant changes
  histology of gastrointestinal tract: absence of gross histological changes
[2]; [6]
  AXIN2 mRNA in HT-1080 xenograft tumors: without any significant effect
  CDC25A mRNA in HT-1080 xenograft tumors: without any significant effect
[2]; 30 mg/kg BID PO 7 days, 1, 4, 8 h, vs control animals
  c-MYC mRNA in HT-1080 xenograft tumors: down-modulation of c-MYC
[2]; 30 mg/kg BID PO, 1 h, treated versus control
  VEGF-A mRNA in HT-1080 xenograft tumors: did not show any difference
[3]
  Axin1 protein level: Axin1 stabilization
  cytoplasmic β-catenin total level: down-regulation of total level of cytoplasmic β-catenin
[4]
  c-MYC mRNA: significant down-modulation
[5]; day 7, 1 h
  Ctumor/plasma: 0.23
[5]; day 7, 1 h after last dose
  Cplasma: 6.6 µmol/L and 6.62 ± 2.08 µmol/L
  Ctumor: 1.5 µmol/L and 1.54 ± 0.35 µmol/L
[5]; day 7, 4 h
  Ctumor/plasma: 0.23
[5]; day 7, 4 h after last dose
  Cplasma: 2.57 ± 0.08 µmol/L
  Ctumor: 0.58 ± 0.08 µmol/L
[5]; day 7, 8 h
  Ctumor/plasma: 0.17
[5]; day 7, 8 h after last dose
  Cplasma: 0.57 ± 0.19 µmol/L
  Ctumor: 0.10 ± 0.02 µmol/L
